Some test systems named below: LXFL 529 NSCLC; HOP-18 NSCLC; RXF-631 renal.
Holding throughout (assay): NCI tumour cell line growth inhibition, 48 h

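Test compounds were applied to cells in 96-well plates for 48 hours at 5 doses. TGI marks complete inhibition of growth.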

Consider `CCOC(=O)C1Cc2[nH]c3ccccc3c2C(C)C1C` (stereo not given), for which the TGI in the test with LXFL 529 NSCLC worked out at 57.1 µM.

As for `COc1ccc(C(C#N)NNC(=O)c2ccccc2O)cc1OC` (stereo not given), the TGI with HOP-18 NSCLC and in the test on LXFL 529 NSCLC was more than 100 µM in each case.

In the test on LXFL 529 NSCLC, `COC(=O)C(CCC#N)(CCC#N)C(=O)OC` displayed a TGI of more than 100 µM.

As to `COc1cc(/C=C2/C(=O)N(C(=O)c3ccccc3O)N=C2C)cc(OC)c1OC`, the TGI in the test with LXFL 529 NSCLC was more than 100 µM.

Turning to `c1ccc(C2C3=C(Nc4ncnn42)c2ccccc2C3)cc1` (stereo not given), the TGI with HOP-18 NSCLC and with RXF-631 renal was more than 100 µM each time.

In the test with LXFL 529 NSCLC, `O=c1[nH]n2c(=O)cc[nH]c2c1-c1nnns1` gave a TGI of more than 100 µM.

Consider `COc1ccc(C2Oc3c(cc(O)c(OC)c3C)[C@@H]2C)cc1OC` (stereo not given in full), for which the TGI in the test on HOP-18 NSCLC, in the test on LXFL 529 NSCLC and with RXF-631 renal was more than 100 µM each time.

With `Cn1cc2ccccc2c1-c1nc(N)nc(F)n1`, the TGI in the test with LXFL 529 NSCLC and in the test on RXF-631 renal was more than 100 µM each time.

Consider `COC(=O)CC(C(C(=O)OC)C(=O)OC)N1C(=O)OCC1c1ccccc1` (stereo not given), for which the TGI with LXFL 529 NSCLC and in the test on RXF-631 renal was more than 100 µM each time.
